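Interpolation was linear, between the two tested concentrations surrounding the appropriate level; five concentrations were tested over 48 hours in 96-well plates. TGI: concentration producing complete growth inhibition.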
What was measured:
Assay in all cases: growth of human tumour cells (NCI), 48 h
A549 NSCLC = tested on: A549 NSCLC
ACHN renal = tested on: ACHN renal
HCT-116 colon = tested on: HCT-116 colon
HT29 colon = tested on: HT29 colon
K-562 leukemia = tested on: K-562 leukemia
OVCAR-4 ovarian = tested on: OVCAR-4 ovarian
SK-MEL-2 melanoma = tested on: SK-MEL-2 melanoma
SK-MEL-5 melanoma = tested on: SK-MEL-5 melanoma
SW-620 colon = tested on: SW-620 colon
U251 CNS = tested on: U251 CNS

Structure (SMILES): Brc1ccccc1-c1ncc(-c2ccccc2)o1
- TGI (A549 NSCLC): > 100 µM
- TGI (ACHN renal): > 100 µM
- TGI (HCT-116 colon): > 100 µM
- TGI (HT29 colon): > 100 µM
- TGI (K-562 leukemia): > 100 µM
- TGI (OVCAR-4 ovarian): > 100 µM
- TGI (SK-MEL-2 melanoma): 89.9 µM
- TGI (SK-MEL-5 melanoma): 34.5 µM
- TGI (SW-620 colon): > 100 µM
- TGI (U251 CNS): 44.2 µM

Structure (SMILES): COc1cc(C2c3cc4c(cc3[C@@H](Nc3cccc(C(C)=O)c3)C3COC(=O)[C@H]23)OCO4)cc(OC)c1O (some centres undefined)
- TGI (A549 NSCLC): 1.99 µM
- TGI (HCT-116 colon): 7.81 µM
- TGI (HT29 colon): 6.53 µM
- TGI (K-562 leukemia): 6.1 µM
- TGI (OVCAR-4 ovarian): > 100 µM
- TGI (SK-MEL-2 melanoma): 7.43 µM
- TGI (SK-MEL-5 melanoma): 2.37 µM
- TGI (SW-620 colon): > 38.2 µM
- TGI (U251 CNS): 9.97 µM

Structure (SMILES): CC1(C)N=C(N)N=C(N)N1c1cccc(OCCOc2ccc([N+](=O)[O-])cc2)c1
- TGI (A549 NSCLC): > 100 µM
- TGI (ACHN renal): > 100 µM
- TGI (HCT-116 colon): > 100 µM
- TGI (HT29 colon): > 100 µM
- TGI (K-562 leukemia): > 100 µM
- TGI (OVCAR-4 ovarian): > 100 µM
- TGI (SK-MEL-2 melanoma): > 100 µM
- TGI (SK-MEL-5 melanoma): > 100 µM
- TGI (SW-620 colon): > 100 µM
- TGI (U251 CNS): > 100 µM

Structure (SMILES): COc1ccc(CC(C)N)cc1 (centres undefined)
- TGI (A549 NSCLC): > 100 µM
- TGI (ACHN renal): > 100 µM
- TGI (HCT-116 colon): > 100 µM
- TGI (HT29 colon): > 100 µM
- TGI (K-562 leukemia): > 100 µM
- TGI (OVCAR-4 ovarian): > 100 µM
- TGI (SK-MEL-2 melanoma): > 100 µM
- TGI (SK-MEL-5 melanoma): > 100 µM
- TGI (SW-620 colon): > 100 µM
- TGI (U251 CNS): > 100 µM

Structure (SMILES): CC(C)(Br)C1(O)CCCN1C(=O)c1ccccc1 (centres undefined)
- TGI (A549 NSCLC): > 100 µM
- TGI (ACHN renal): > 100 µM
- TGI (HCT-116 colon): > 100 µM
- TGI (HT29 colon): > 100 µM
- TGI (K-562 leukemia): > 100 µM
- TGI (SK-MEL-2 melanoma): > 100 µM
- TGI (SK-MEL-5 melanoma): > 100 µM
- TGI (SW-620 colon): > 100 µM
- TGI (U251 CNS): > 100 µM

Structure (SMILES): NCc1ccccc1C1CSCSC1
- TGI (A549 NSCLC): > 100 µM
- TGI (ACHN renal): > 100 µM
- TGI (HCT-116 colon): > 100 µM
- TGI (HT29 colon): > 100 µM
- TGI (K-562 leukemia): > 100 µM
- TGI (OVCAR-4 ovarian): > 100 µM
- TGI (SK-MEL-2 melanoma): > 100 µM
- TGI (SK-MEL-5 melanoma): > 100 µM
- TGI (SW-620 colon): > 100 µM
- TGI (U251 CNS): > 100 µM

Structure (SMILES): CC12Cc3cc4c(cc3C1(c1ccc([N+](=O)[O-])cc1)OCCO2)OCO4 (centres undefined)
- TGI (A549 NSCLC): > 100 µM
- TGI (ACHN renal): > 100 µM
- TGI (HCT-116 colon): > 100 µM
- TGI (HT29 colon): > 100 µM
- TGI (K-562 leukemia): > 100 µM
- TGI (OVCAR-4 ovarian): > 100 µM
- TGI (SK-MEL-2 melanoma): > 100 µM
- TGI (SK-MEL-5 melanoma): > 100 µM
- TGI (SW-620 colon): > 100 µM
- TGI (U251 CNS): > 100 µM

Structure (SMILES): O=C(CSCC(=O)N/N=C\c1ccc(-c2ccccc2)cc1)N/N=C\c1ccc(-c2ccccc2)cc1
- TGI (A549 NSCLC): 54.4 µM
- TGI (ACHN renal): 55.9 µM
- TGI (HCT-116 colon): 21.4 µM
- TGI (HT29 colon): 76.6 µM
- TGI (K-562 leukemia): > 100 µM
- TGI (OVCAR-4 ovarian): 46.5 µM
- TGI (SK-MEL-2 melanoma): 83.4 µM
- TGI (SK-MEL-5 melanoma): > 100 µM
- TGI (SW-620 colon): 38.4 µM
- TGI (U251 CNS): 31.5 µM

Structure (SMILES): c1ccc(-c2nn(-c3ccccc3)[n+](-c3ccccc3)n2)cc1
- TGI (A549 NSCLC): > 100 µM
- TGI (ACHN renal): > 100 µM
- TGI (HCT-116 colon): > 56.7 µM
- TGI (HT29 colon): > 100 µM
- TGI (K-562 leukemia): > 100 µM
- TGI (OVCAR-4 ovarian): > 100 µM
- TGI (SK-MEL-2 melanoma): > 80.1 µM
- TGI (SK-MEL-5 melanoma): 14.1 µM
- TGI (SW-620 colon): > 100 µM
- TGI (U251 CNS): > 100 µM

Structure (SMILES): Cc1ccc(S(N)(=O)=O)cc1
- TGI (A549 NSCLC): > 1000 µM
- TGI (ACHN renal): > 1000 µM
- TGI (HCT-116 colon): > 1000 µM
- TGI (HT29 colon): > 1000 µM
- TGI (K-562 leukemia): > 1000 µM
- TGI (SK-MEL-2 melanoma): > 1000 µM
- TGI (SK-MEL-5 melanoma): > 1000 µM
- TGI (SW-620 colon): > 1000 µM
- TGI (U251 CNS): > 1000 µM

Structure (SMILES): COc1ccc(NC(=O)/C(=C/c2ccc(N(CCC#N)CCC#N)cc2)NC(=O)c2cc([N+](=O)[O-])ccc2Cl)cc1
- TGI (A549 NSCLC): 89.7 µM
- TGI (ACHN renal): 59.5 µM
- TGI (HCT-116 colon): > 100 µM
- TGI (K-562 leukemia): > 100 µM
- TGI (OVCAR-4 ovarian): > 100 µM
- TGI (SK-MEL-2 melanoma): > 100 µM
- TGI (SK-MEL-5 melanoma): > 100 µM
- TGI (SW-620 colon): > 100 µM
- TGI (U251 CNS): > 100 µM

Structure (SMILES): CCOC(=O)/C=C(\C)c1ccc(OC)cc1
- TGI (A549 NSCLC): > 100 µM
- TGI (ACHN renal): > 100 µM
- TGI (HCT-116 colon): > 100 µM
- TGI (HT29 colon): > 100 µM
- TGI (OVCAR-4 ovarian): > 100 µM
- TGI (SK-MEL-2 melanoma): > 100 µM
- TGI (SK-MEL-5 melanoma): > 100 µM
- TGI (SW-620 colon): > 100 µM
- TGI (U251 CNS): > 100 µM

Structure (SMILES): c1ccc(CSc2nc(N3CCOCC3)c3cn[nH]c3n2)cc1
- TGI (A549 NSCLC): > 100 µM
- TGI (ACHN renal): 90.9 µM
- TGI (HCT-116 colon): > 100 µM
- TGI (HT29 colon): > 100 µM
- TGI (K-562 leukemia): > 100 µM
- TGI (OVCAR-4 ovarian): > 100 µM
- TGI (SK-MEL-2 melanoma): 34 µM
- TGI (SK-MEL-5 melanoma): 30.9 µM
- TGI (SW-620 colon): 64.8 µM
- TGI (U251 CNS): 63.2 µM

Structure (SMILES): CC[n+]1c(/C=C/c2ccc(N(CCCl)CCCl)cc2)ccc2cc(NC(=O)/C=C/c3ccccc3)ccc21
- TGI (A549 NSCLC): 6.09 µM
- TGI (ACHN renal): > 56.6 µM
- TGI (HCT-116 colon): 1.34 µM
- TGI (HT29 colon): 1.36 µM
- TGI (K-562 leukemia): 0.235 µM
- TGI (SK-MEL-2 melanoma): 1.27 µM
- TGI (SK-MEL-5 melanoma): 0.632 µM
- TGI (SW-620 colon): 0.67 µM
- TGI (U251 CNS): 0.619 µM
